Values belong to the compound of their own block, whether it stands above or below them.
What was measured:
Type in all cases: biochemical
Details in all cases: Table 6; enzyme inhibition data (Ki)
[1] = biological target: T1, JAK3 (Homo sapiens, UniProt P52333); assay: JAK3 inhibition assay (33P incorporation into poly(Glu)4Tyr)
T1 sequence (P52333 1-1124): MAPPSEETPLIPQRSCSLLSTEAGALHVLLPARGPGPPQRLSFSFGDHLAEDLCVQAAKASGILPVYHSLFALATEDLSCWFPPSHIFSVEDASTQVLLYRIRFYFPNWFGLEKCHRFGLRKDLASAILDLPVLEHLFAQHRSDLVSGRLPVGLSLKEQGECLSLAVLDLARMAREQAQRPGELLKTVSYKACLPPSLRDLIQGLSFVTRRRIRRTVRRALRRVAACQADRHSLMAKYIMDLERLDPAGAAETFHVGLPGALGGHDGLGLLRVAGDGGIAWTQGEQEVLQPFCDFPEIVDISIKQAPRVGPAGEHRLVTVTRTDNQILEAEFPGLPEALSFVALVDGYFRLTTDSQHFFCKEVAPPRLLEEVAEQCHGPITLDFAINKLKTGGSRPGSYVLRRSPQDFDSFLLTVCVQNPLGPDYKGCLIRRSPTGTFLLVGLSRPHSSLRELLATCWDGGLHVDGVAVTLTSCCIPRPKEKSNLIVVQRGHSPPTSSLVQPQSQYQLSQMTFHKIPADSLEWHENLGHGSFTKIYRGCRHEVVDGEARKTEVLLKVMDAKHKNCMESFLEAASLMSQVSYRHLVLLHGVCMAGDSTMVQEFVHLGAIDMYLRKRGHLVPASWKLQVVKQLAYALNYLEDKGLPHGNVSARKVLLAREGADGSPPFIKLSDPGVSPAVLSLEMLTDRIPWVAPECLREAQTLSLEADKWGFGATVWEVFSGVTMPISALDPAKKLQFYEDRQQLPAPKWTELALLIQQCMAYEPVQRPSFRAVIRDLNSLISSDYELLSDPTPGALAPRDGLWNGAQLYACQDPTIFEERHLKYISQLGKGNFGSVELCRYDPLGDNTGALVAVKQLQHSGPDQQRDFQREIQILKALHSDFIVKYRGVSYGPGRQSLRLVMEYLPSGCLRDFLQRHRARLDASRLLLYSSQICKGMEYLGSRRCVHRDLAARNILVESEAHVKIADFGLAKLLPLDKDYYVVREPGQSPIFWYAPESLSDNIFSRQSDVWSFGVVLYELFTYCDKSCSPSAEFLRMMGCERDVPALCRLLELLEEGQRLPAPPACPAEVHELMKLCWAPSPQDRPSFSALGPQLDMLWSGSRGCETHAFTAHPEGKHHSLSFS
Procedure, shortened: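 After TCA quench and filter harvest, scintillation counting of 33P measured phosphorylation of poly(Glu)4Tyr (1 μM) by 1 nM JAK3. The 20-min, 25° C. reaction contained 5 μM ATP (200 μCi/μmole) in pH 7.4 HEPES buffer with 10 mM MgCl2.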

[2] = biological target: ROCK I (Homo sapiens, UniProt Q13464); assay: ROCK-I inhibition assay (radioactive enzyme assay, MBP substrate)
Procedure, shortened: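 Human ROCK at 5 nM phosphorylated 27 μM myelin basic protein with 13 μM [γ-33P]ATP (final) in HEPES pH 7.5, MgCl2, NaCl, DTT and 1.5% DMSO. Reactions ran 2 h at room temperature before TCA quench and filter-plate scintillation counting. After background subtraction, data were fit to give Ki(app).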

[3] = biological target: JAK2 (Homo sapiens, UniProt O60674); assay: JAK2 inhibition assay (as Example 3 with JAK-2 enzyme)
Procedure, shortened: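 In HEPES pH 7.4 buffer with 10 mM MgCl2, 1 mM DTT, 25 mM NaCl and 0.01% BSA, JAK2 enzyme phosphorylated poly(Glu)4Tyr (final 15 μM) using 33P-ATP (final 12 μM) for 20 min at room temperature (25 °C). Reactions stopped with TCA; incorporated 33P measured by scintillation after filtration.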

Chain of ROCK I (Q13464 whole entry): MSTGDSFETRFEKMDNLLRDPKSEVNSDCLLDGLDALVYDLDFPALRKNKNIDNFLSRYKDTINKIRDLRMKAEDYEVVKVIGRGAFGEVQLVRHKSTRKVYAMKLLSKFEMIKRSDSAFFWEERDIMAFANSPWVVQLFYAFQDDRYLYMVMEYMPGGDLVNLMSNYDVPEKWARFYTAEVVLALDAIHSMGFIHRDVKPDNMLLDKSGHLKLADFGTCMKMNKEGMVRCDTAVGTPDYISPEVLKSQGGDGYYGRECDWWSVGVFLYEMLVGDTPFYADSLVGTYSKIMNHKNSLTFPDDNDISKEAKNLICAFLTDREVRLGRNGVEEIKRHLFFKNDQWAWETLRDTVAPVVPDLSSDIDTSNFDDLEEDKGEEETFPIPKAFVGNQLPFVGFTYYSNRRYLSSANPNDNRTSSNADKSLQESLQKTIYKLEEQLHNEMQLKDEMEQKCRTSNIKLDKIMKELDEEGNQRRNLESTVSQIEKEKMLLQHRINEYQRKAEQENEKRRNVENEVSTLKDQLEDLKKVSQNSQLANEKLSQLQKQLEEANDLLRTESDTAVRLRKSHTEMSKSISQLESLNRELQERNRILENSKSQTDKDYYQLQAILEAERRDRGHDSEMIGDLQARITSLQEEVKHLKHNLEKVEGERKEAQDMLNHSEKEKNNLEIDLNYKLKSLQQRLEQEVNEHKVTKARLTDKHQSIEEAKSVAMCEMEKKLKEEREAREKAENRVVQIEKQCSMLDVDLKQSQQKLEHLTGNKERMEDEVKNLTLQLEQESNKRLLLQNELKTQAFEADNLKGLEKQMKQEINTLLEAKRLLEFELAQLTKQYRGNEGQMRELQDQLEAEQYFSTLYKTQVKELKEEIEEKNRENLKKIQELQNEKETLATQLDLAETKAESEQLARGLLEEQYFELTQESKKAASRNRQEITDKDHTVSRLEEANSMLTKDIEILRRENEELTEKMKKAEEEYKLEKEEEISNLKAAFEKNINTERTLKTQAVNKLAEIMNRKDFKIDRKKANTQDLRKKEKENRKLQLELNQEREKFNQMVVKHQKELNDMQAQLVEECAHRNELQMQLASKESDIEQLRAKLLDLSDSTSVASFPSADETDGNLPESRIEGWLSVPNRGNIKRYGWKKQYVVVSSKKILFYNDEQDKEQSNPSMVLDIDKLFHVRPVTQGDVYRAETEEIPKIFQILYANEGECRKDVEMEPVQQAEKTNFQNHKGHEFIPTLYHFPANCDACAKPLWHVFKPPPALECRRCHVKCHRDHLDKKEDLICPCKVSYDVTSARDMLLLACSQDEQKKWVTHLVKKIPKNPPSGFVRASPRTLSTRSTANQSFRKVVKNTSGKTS
Chain of JAK2 (O60674 whole entry): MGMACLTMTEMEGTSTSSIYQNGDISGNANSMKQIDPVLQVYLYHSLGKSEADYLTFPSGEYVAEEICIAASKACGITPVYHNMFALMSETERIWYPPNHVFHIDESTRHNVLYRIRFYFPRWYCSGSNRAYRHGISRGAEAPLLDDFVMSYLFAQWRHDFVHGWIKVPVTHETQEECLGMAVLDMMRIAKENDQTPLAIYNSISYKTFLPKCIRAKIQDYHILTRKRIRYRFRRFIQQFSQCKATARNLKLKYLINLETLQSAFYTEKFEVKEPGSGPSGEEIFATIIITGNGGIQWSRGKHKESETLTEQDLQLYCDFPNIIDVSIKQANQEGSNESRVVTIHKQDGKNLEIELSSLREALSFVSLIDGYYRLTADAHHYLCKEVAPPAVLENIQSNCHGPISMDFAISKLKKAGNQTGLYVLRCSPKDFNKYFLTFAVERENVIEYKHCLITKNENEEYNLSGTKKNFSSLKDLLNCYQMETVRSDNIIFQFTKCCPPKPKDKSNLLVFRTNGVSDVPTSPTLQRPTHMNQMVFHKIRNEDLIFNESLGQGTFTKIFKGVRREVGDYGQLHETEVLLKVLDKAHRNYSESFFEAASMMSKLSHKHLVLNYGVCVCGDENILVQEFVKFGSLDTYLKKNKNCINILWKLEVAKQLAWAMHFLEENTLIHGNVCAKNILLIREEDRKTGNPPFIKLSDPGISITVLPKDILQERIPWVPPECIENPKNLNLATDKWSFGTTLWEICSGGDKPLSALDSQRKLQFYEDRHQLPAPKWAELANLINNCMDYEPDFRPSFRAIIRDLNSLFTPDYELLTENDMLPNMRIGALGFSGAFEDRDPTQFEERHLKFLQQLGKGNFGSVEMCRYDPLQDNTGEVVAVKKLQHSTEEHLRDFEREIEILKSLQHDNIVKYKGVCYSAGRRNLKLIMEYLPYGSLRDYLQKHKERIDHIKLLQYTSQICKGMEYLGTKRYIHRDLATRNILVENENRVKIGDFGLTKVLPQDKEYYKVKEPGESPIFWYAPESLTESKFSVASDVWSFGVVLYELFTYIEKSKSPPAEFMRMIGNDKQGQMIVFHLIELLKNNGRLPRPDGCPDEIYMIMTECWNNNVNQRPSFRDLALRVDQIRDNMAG

Ki [1]: < 500 nM
Ki [2]: 500 to 5000 nM
Ki [3]: < 500 nM
Compound: CCN(CCC#N)C(=O)c1cc(-c2c(Cl)cnc3[nH]ccc23)c[nH]1 [compound 329]

Ki [1]: < 500 nM
Ki [2]: 500 to 5000 nM
Ki [3]: < 500 nM
Compound: C=CCN(CC=C)C(=O)c1cc(-c2c(Cl)cnc3[nH]ccc23)c[nH]1 [compound 330]

Ki [1]: < 500 nM
Ki [2]: 500 to 5000 nM
Ki [3]: < 500 nM
Compound: N#CCCN(Cc1cccnc1)C(=O)c1cc(-c2c(Cl)cnc3[nH]ccc23)c[nH]1 [compound 331]

Ki [1]: < 500 nM
Ki [2]: 500 to 5000 nM
Ki [3]: < 500 nM
Compound: CCCCN(CC#N)C(=O)c1cc(-c2c(Cl)cnc3[nH]ccc23)c[nH]1 [compound 332]

Ki [1]: < 500 nM
Ki [2]: > 4000 nM
Ki [3]: < 500 nM
Compound: CCN(Cc1ccccn1)C(=O)c1cc(-c2c(Cl)cnc3[nH]ccc23)c[nH]1 [compound 333]

Ki [1]: < 500 nM
Ki [2]: 500 to 5000 nM
Ki [3]: < 500 nM
Compound: CCCN(CC1CC1)C(=O)c1cc(-c2c(Cl)cnc3[nH]ccc23)c[nH]1 [compound 334]

Ki [1]: < 500 nM
Ki [2]: 500 to 5000 nM
Ki [3]: < 500 nM
Compound: CCCN(CCC#N)C(=O)c1cc(-c2c(Cl)cnc3[nH]ccc23)c[nH]1 [compound 335]

Ki [1]: < 500 nM
Ki [2]: 500 to 5000 nM
Ki [3]: < 500 nM
Compound: CCCCN(CCC#N)C(=O)c1cc(-c2c(Cl)cnc3[nH]ccc23)c[nH]1 [compound 336]

Ki [1]: < 500 nM
Ki [2]: 500 to 5000 nM
Ki [3]: < 500 nM
Compound: C#CCN(C)C(=O)c1cc(-c2c(Cl)cnc3[nH]ccc23)c[nH]1 [compound 338]

Ki [1]: < 500 nM
Ki [2]: > 4000 nM
Ki [3]: < 500 nM
Compound: COCCN(CCOC)C(=O)c1cc(-c2c(Cl)cnc3[nH]ccc23)c[nH]1 [compound 339]

Ki [1]: < 500 nM
Ki [2]: > 4000 nM
Ki [3]: < 500 nM
Compound: CCCN(CCC)C(=O)c1cc(-c2c(Cl)cnc3[nH]ccc23)c[nH]1 [compound 340]

Ki [1]: < 500 nM
Ki [2]: 500 to 5000 nM
Ki [3]: < 500 nM
Compound: CC(C)CN(C)C(=O)c1cc(-c2c(Cl)cnc3[nH]ccc23)c[nH]1 [compound 341]

Ki [1]: < 500 nM
Ki [2]: 500 to 5000 nM
Ki [3]: < 500 nM
Compound: N#CCCN(Cc1ccccc1)C(=O)c1cc(-c2c(Cl)cnc3[nH]ccc23)c[nH]1 [compound 343]

Ki [1]: < 500 nM
Ki [2]: 500 to 5000 nM
Ki [3]: < 500 nM
Compound: CCN(Cc1ccccc1)C(=O)c1cc(-c2c(Cl)cnc3[nH]ccc23)c[nH]1 [compound 344]

Ki [1]: < 500 nM
Ki [2]: 500 to 5000 nM
Ki [3]: < 500 nM
Compound: CCN(CCO)C(=O)c1cc(-c2c(Cl)cnc3[nH]ccc23)c[nH]1 [compound 345]

Ki [1]: 500 to 5000 nM
Ki [2]: > 4000 nM
Ki [3]: 500 to 5000 nM
Compound: CN(C)CCCN(C)C(=O)c1cc(-c2c(Cl)cnc3[nH]ccc23)c[nH]1 [compound 349]

Ki [1]: < 500 nM
Ki [2]: > 4000 nM
Ki [3]: < 500 nM
Compound: CN(CCc1ccccn1)C(=O)c1cc(-c2c(Cl)cnc3[nH]ccc23)c[nH]1 [compound 351]

Ki [1]: < 500 nM
Ki [2]: 500 to 5000 nM
Ki [3]: < 500 nM
Compound: CCN(Cc1ccncc1)C(=O)c1cc(-c2c(Cl)cnc3[nH]ccc23)c[nH]1 [compound 353]

Ki [1]: < 500 nM
Ki [2]: 500 to 5000 nM
Ki [3]: < 500 nM
Compound: CN(Cc1cccnc1)C(=O)c1cc(-c2c(Cl)cnc3[nH]ccc23)c[nH]1 [compound 354]

Ki [1]: < 500 nM
Ki [2]: 500 to 5000 nM
Ki [3]: < 500 nM
Compound: CN(CC(F)(F)F)C(=O)c1cc(-c2c(Cl)cnc3[nH]ccc23)c[nH]1 [compound 360]

Ki [1]: < 500 nM
Ki [2]: < 500 nM
Ki [3]: < 500 nM
Compound: CN(CCc1ccccn1)C(=O)c1cc(-c2ccnc3[nH]ccc23)c[nH]1 [compound 367]

Ki [1]: < 500 nM
Ki [2]: < 500 nM
Ki [3]: < 500 nM
Compound: CN(Cc1cccnc1)C(=O)c1cc(-c2ccnc3[nH]ccc23)c[nH]1 [compound 370]

The next lines start with the compound.

Compound: CC(C)CN(CC(C)C)C(=O)c1ccc(-c2ccnc3[nH]ccc23)s1 [compound 327]
Ki [1]: 500 to 5000 nM
Ki [2]: < 500 nM
Ki [3]: < 500 nM

Compound: N#CCCN(Cc1ccccc1)C(=O)c1ccc(-c2ccnc3[nH]ccc23)s1 [compound 328]
Ki [1]: < 500 nM
Ki [2]: < 500 nM
Ki [3]: < 500 nM

Compound: CC(C)CN(CC(C)C)C(=O)c1cc(-c2c(Cl)cnc3[nH]ccc23)c[nH]1 [compound 342]
Ki [1]: < 500 nM
Ki [2]: > 4000 nM
Ki [3]: < 500 nM

Compound: O=C(c1cc(-c2c(Cl)cnc3[nH]ccc23)c[nH]1)N1CCCC1CO (stereo not drawn) [compound 346]
Ki [1]: < 500 nM
Ki [2]: > 4000 nM
Ki [3]: < 500 nM

Compound: O=C(c1cc(-c2c(Cl)cnc3[nH]ccc23)c[nH]1)N1CCC(CO)CC1 [compound 347]
Ki [1]: < 500 nM
Ki [2]: 500 to 5000 nM
Ki [3]: < 500 nM

Compound: CCOC(=O)C1CCN(C(=O)c2cc(-c3c(Cl)cnc4[nH]ccc34)c[nH]2)CC1 [compound 348]
Ki [1]: 500 to 5000 nM
Ki [2]: > 4000 nM
Ki [3]: 500 to 5000 nM

Compound: O=C(c1cc(-c2c(Cl)cnc3[nH]ccc23)c[nH]1)N1CCC(O)C1 (stereo not drawn) [compound 350]
Ki [1]: < 500 nM
Ki [2]: > 4000 nM
Ki [3]: < 500 nM

Compound: NC(=O)C1CCCN1C(=O)c1cc(-c2c(Cl)cnc3[nH]ccc23)c[nH]1 (stereo not drawn) [compound 352]
Ki [1]: < 500 nM
Ki [2]: > 4000 nM
Ki [3]: < 500 nM

Compound: CN(C)C1CCN(C(=O)c2cc(-c3c(Cl)cnc4[nH]ccc34)c[nH]2)C1 (stereo not drawn) [compound 355]
Ki [1]: 500 to 5000 nM
Ki [2]: > 4000 nM
Ki [3]: < 500 nM

Compound: O=C(c1cc(-c2c(Cl)cnc3[nH]ccc23)c[nH]1)N1CCCC(O)C1 (stereo not drawn) [compound 356]
Ki [1]: < 500 nM
Ki [2]: 500 to 5000 nM
Ki [3]: < 500 nM

Compound: N#CC1CCCN1C(=O)c1cc(-c2c(Cl)cnc3[nH]ccc23)c[nH]1 (stereo not drawn) [compound 357]
Ki [1]: < 500 nM
Ki [2]: 500 to 5000 nM
Ki [3]: < 500 nM

Compound: O=C(c1cc(-c2c(Cl)cnc3[nH]ccc23)c[nH]1)N1CCCC1C(F)(F)F (stereo not drawn) [compound 358]
Ki [1]: < 500 nM
Ki [2]: 500 to 5000 nM
Ki [3]: < 500 nM

Compound: CC1CCC(C)N1C(=O)c1cc(-c2c(Cl)cnc3[nH]ccc23)c[nH]1 (stereo not drawn) [compound 359]
Ki [1]: < 500 nM
Ki [2]: 500 to 5000 nM
Ki [3]: < 500 nM

Compound: CCN(CCO)C(=O)c1cc(-c2ccnc3[nH]ccc23)c[nH]1 [compound 361]
Ki [1]: < 500 nM
Ki [2]: < 500 nM
Ki [3]: < 500 nM

Compound: O=C(c1cc(-c2ccnc3[nH]ccc23)c[nH]1)N1CCCC1CO (stereo not drawn) [compound 362]
Ki [1]: 500 to 5000 nM
Ki [2]: 500 to 5000 nM
Ki [3]: < 500 nM

Compound: O=C(c1cc(-c2ccnc3[nH]ccc23)c[nH]1)N1CCC(CO)CC1 [compound 363]
Ki [1]: 500 to 5000 nM
Ki [2]: 500 to 5000 nM
Ki [3]: < 500 nM

Compound: CCOC(=O)C1CCN(C(=O)c2cc(-c3ccnc4[nH]ccc34)c[nH]2)CC1 [compound 364]
Ki [1]: 500 to 5000 nM
Ki [2]: 500 to 5000 nM
Ki [3]: 500 to 5000 nM

Compound: CN(C)CCCN(C)C(=O)c1cc(-c2ccnc3[nH]ccc23)c[nH]1 [compound 365]
Ki [1]: 500 to 5000 nM
Ki [2]: < 500 nM
Ki [3]: 500 to 5000 nM

Compound: O=C(c1cc(-c2ccnc3[nH]ccc23)c[nH]1)N1CCC(O)C1 (stereo not drawn) [compound 366]
Ki [1]: 500 to 5000 nM
Ki [2]: 500 to 5000 nM
Ki [3]: 500 to 5000 nM

Compound: NC(=O)C1CCCN1C(=O)c1cc(-c2ccnc3[nH]ccc23)c[nH]1 (stereo not drawn) [compound 368]
Ki [1]: < 500 nM
Ki [2]: 500 to 5000 nM
Ki [3]: 500 to 5000 nM

Compound: CCN(Cc1ccncc1)C(=O)c1cc(-c2ccnc3[nH]ccc23)c[nH]1 [compound 369]
Ki [1]: < 500 nM
Ki [2]: < 500 nM
Ki [3]: < 500 nM

Compound: CN(C)C1CCN(C(=O)c2cc(-c3ccnc4[nH]ccc34)c[nH]2)C1 (stereo not drawn) [compound 371]
Ki [1]: 500 to 5000 nM
Ki [2]: 500 to 5000 nM
Ki [3]: 500 to 5000 nM

Reference: US8921376B2, “Pyrrolopyridines useful as inhibitors of protein kinase” (Vertex Pharmaceuticals Incorporated, priority 2005, dated 2014)
